According to patent US7514452B2, “2-furancarboxylic acid hydrazides and pharmaceutical compositions containing the same” (Dainippon Pharmaceutical Co., Ltd, priority 2002, dated 2009):

Legend:
glucagon receptor [1] = biological target: glucagon receptor (Mus musculus, UniProt Q61606); experiment: Experiment for glucagon binding inhibition, mouse hepatic membrane (125I-glucagon); conditions: male ddY mouse hepatic membrane, 125I-glucagon 50 pM, 25° C. for 30 minutes; read-out: Glucagon binding inhibitory activity IC50 (nM) Mouse
Protocol: (§1) The preparation of membrane from mouse and rat livers was carried out according to the method described in Bioorg. Med. Chem. Lett. 1992, 12, 915-918 in this experiment and ^125I-glucagon binding activity was measured with these membranes as glucagon receptor's samples. Livers were removed from male SD rats (about 250 g body weight per rat) and male ddY mice (about 30 g body weight per mouse). […] The homogenate was centrifuged for 15 minutes at 30,000×g. […] The precipitaion thus obtained was used as a hepatic membrane sample. […] The mixture was incubated at 25° C. for 30 minutes. […] The filter was washed 3 times with 50 mM Tris-HCl buffer (pH 7.2), and the radioactivity of the filter was measured by a γ counter (ARC-360, Aloka Co., Ltd.). […] Each experiment was carried out in duplicate. […] The concentration at 50% inhibition of binding (IC50) was calculated using a pseudo Hill plot.

glucagon receptor [2] = biological target: glucagon receptor (Rattus norvegicus, UniProt P30082); experiment: Experiment for glucagon binding inhibition, rat hepatic membrane (125I-glucagon); conditions: male SD rat hepatic membrane, 125I-glucagon 50 pM, 25° C. for 30 minutes; read-out: Glucagon binding inhibitory activity IC50 (nM) Rat
Protocol: as §1

Chain of glucagon receptor (Rattus norvegicus, UniProt P30082) (P30082 27-485): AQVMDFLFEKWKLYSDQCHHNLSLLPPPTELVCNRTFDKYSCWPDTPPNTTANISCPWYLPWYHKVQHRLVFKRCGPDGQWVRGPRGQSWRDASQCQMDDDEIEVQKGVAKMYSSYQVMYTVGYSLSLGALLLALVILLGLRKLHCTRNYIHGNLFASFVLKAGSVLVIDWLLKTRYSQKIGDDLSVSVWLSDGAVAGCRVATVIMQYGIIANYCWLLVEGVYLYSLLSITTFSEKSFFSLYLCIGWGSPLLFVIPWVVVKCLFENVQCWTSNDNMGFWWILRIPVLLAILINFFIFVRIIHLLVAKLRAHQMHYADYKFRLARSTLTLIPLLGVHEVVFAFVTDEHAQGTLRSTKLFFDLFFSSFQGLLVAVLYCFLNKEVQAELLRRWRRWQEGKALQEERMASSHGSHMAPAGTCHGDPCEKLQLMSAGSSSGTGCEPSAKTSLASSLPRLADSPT
Chain of glucagon receptor (Mus musculus, UniProt Q61606) (Q61606 27-485): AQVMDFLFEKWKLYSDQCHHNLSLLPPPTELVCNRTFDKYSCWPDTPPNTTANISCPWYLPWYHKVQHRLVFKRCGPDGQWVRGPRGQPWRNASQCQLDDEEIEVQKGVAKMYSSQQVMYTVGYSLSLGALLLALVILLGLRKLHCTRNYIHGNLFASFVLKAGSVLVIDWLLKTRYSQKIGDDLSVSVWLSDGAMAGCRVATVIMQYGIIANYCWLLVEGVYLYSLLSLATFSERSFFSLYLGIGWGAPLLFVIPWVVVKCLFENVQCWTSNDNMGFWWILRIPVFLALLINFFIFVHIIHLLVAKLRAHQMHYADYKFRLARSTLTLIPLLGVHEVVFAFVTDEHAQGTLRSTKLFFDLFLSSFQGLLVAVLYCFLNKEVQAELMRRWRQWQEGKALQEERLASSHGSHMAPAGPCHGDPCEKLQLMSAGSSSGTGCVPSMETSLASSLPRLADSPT

Structure (SMILES) | melting point [°C] | IC50 (glucagon receptor [1]) [nM] | IC50 (glucagon receptor [2]) [nM]
CCCCCCc1ccc(-c2ccoc2C(=O)NNC(=O)c2ccc(O)c([N+](=O)[O-])c2)cc1 [Example 158, 3-(4-Hexylphenyl)-2-furancarboxylic acid 2-(4-hydroxy-3-nitrobenzoyl)hydrazide] | 144 to 146 | 7.1 | 5.9
CCCCCOc1ccc(-c2ccoc2C(=O)NNC(=O)c2ccc(O)c([N+](=O)[O-])c2)cc1 [Example 159, 3-(4-Pentyloxyphenyl)-2-furancarboxylic acid 2-(4-hydroxy-3-nitrobenzoyl)hydrazide] | 156 to 157 | 60 | 31
CCCCOc1ccc(-c2ccoc2C(=O)NNC(=O)c2ccc(O)c([N+](=O)[O-])c2)cc1 [Example 161] | 155 to 156 | 140 | 100
CCCCCc1ccc(-c2ccoc2C(=O)NNC(=O)c2ccc(O)c([N+](=O)[O-])c2)cc1 [Example 162, 3-(4-Pentylphenyl)-2-furancarboxylic acid 2-(4-hydroxy-3-nitrobenzoyl)hydrazide] | 163 to 165 | 8.6 | 9.6
COc1ccc(COc2cccc(-c3ccoc3C(=O)NNC(=O)c3ccc(O)c([N+](=O)[O-])c3)c2)cn1 [Example 164, 3-[3-(2-Methoxy-5-pyridylmethyloxy)phenyl]-2-furancarboxylic acid 2-(4-hydroxy-3-nitrobenzoyl)hydrazide] | 180 to 181 | 6.5 | 3.9
COc1ccc(COc2cccc(-c3ccoc3C(=O)NNC(=O)c3ccc(O)c([N+](=O)[O-])c3)c2)cc1 [Example 176, 3-[3-(4-Methoxybenzyloxy)phenyl]-2-furancarboxylic acid 2-(4-hydroxy-3-nitrobenzoyl)hydrazide] | 172 to 174 | 5.2 | 6.4
CCCCOc1cccc(-c2ccoc2C(=O)NNC(=O)c2ccc(O)c([N+](=O)[O-])c2)c1 [Example 181, 3-(3-Butoxyphenyl)-2-furancarboxylic acid 2-(4-hydroxy-3-nitrobenzoyl)hydrazide] | 135 to 138 | 62 | 30
CC(C)COc1cccc(-c2ccoc2C(=O)NNC(=O)c2ccc(O)c([N+](=O)[O-])c2)c1 [Example 183, 3-(3-Isobutoxyphenyl)-2-furancarboxylic acid 2-(4-hydroxy-3-nitrobenzoyl)hydrazide] | 98 to 100 | 34 | 51
O=C(NNC(=O)c1occc1-c1cccc(Cc2ccccc2)c1)c1ccc(O)c([N+](=O)[O-])c1 [Example 189, 3-(3-Benzylphenyl)-2-furancarboxylic acid 2-(4-hydroxy-3-nitrobenzoyl)hydrazide] | 160 to 162 | 3 | 5.5
O=C(NNC(=O)c1occc1-c1ccccc1)c1ccc(O)c(C(F)(F)F)c1 [Example 193, 3-phenyl-2-furancarboxylic acid 2-(4-hydroxy-3-trifluoromethylbenzoyl)hydrazide] | 117 to 121 | 350 | 330

Results, then the compound that gave them:

melting point [°C] | IC50 (glucagon receptor [1]) [nM] | IC50 (glucagon receptor [2]) [nM] | Structure (SMILES)
182 to 183 | 250 | 120 | CC(C)c1cccc(-c2ccoc2C(=O)NNC(=O)c2ccc(O)c([N+](=O)[O-])c2)c1 [Example 152, 3-(3-Isopropylphenyl)-2-furancarboxylic acid 2-(4-hydroxy-3-nitrobenzoyl)hydrazide]
194 to 196 | 18 | 24 | CC(C)c1ccc(-c2ccoc2C(=O)NNC(=O)c2ccc(O)c([N+](=O)[O-])c2)cc1 [Example 153, 3-(4-Isopropylphenyl)-2-furancarboxylic acid 2-(4-hydroxy-3-nitrobenzoyl)hydrazide]
189 to 191 | 45 | 44 | CCc1ccc(-c2ccoc2C(=O)NNC(=O)c2ccc(O)c([N+](=O)[O-])c2)cc1 [Example 156, 3-(4-Ethylphenyl)-2-furancarboxylic acid 2-(4-hydroxy-3-nitrobenzoyl)hydrazide]
174 to 176 | 3.4 | 2.9 | CCCc1ccc(-c2ccoc2C(=O)NNC(=O)c2ccc(O)c([N+](=O)[O-])c2)cc1 [Example 160, 3-(4-Propylphenyl)-2-furancarboxylic acid 2-(4-hydroxy-3-nitrobenzoyl)hydrazide]
122 to 124 | 46 | 84 | CC(C)CCOc1cccc(-c2ccoc2C(=O)NNC(=O)c2ccc(O)c([N+](=O)[O-])c2)c1 [Example 180, 3-(3-Isopentyloxyphenyl)-2-furancarboxylic acid 2-(4-hydroxy-3-nitrobenzoyl)hydrazide]
96 to 99 | 50 | 49 | CCCCCOc1cccc(-c2ccoc2C(=O)NNC(=O)c2ccc(O)c([N+](=O)[O-])c2)c1 [Example 182, 3-(3-Pentyloxyphenyl)-2-furancarboxylic acid 2-(4-hydroxy-3-nitrobenzoyl)hydrazide]
124 to 126 | 59 | 18 | CCCCCCOc1cccc(-c2ccoc2C(=O)NNC(=O)c2ccc(O)c([N+](=O)[O-])c2)c1 [Example 184, 3-(3-Hexyloxyphenyl)-2-furancarboxylic acid 2-(4-hydroxy-3-nitrobenzoyl)hydrazide]
141 to 144 | 23 | 20 | CCCCCCCOc1cccc(-c2ccoc2C(=O)NNC(=O)c2ccc(O)c([N+](=O)[O-])c2)c1 [Example 185, 3-(3-Heptyloxyphenyl)-2-furancarboxylic acid 2-(4-hydroxy-3-nitrobenzoyl)hydrazide]
87 to 89 | 28 | 26 | CCCCCCc1cccc(-c2ccoc2C(=O)NNC(=O)c2ccc(O)c([N+](=O)[O-])c2)c1 [Example 188, 3-(3-Hexylphenyl)-2-furancarboxylic acid 2-(4-hydroxy-3-nitrobenzoyl)hydrazide]
84 to 85 | 63 | 40 | CC(C)=CCOc1cccc(-c2ccoc2C(=O)NNC(=O)c2ccc(O)c([N+](=O)[O-])c2)c1 [Example 196, 3-[3-(3-Methyl-2-butenyloxy)phenyl]-2-furancarboxylic acid 2-(4-hydroxy-3-nitrobenzoyl)hydrazide]
127 to 129 | 56 | 37 | C=C(C)COc1cccc(-c2ccoc2C(=O)NNC(=O)c2ccc(O)c([N+](=O)[O-])c2)c1 [Example 197, 3-[3-(2-Methyl-2-propenyloxy)phenyl]-2-furancarboxylic acid 2-(4-hydroxy-3-nitrobenzoyl)hydrazide]
113 to 115 | 20 | 75 | CC=CCOc1cccc(-c2ccoc2C(=O)NNC(=O)c2ccc(O)c([N+](=O)[O-])c2)c1 [Example 198, 3-[3-(2-Butenyloxy)phenyl]-2-furancarboxylic acid 2-(4-hydroxy-3-nitrobenzoyl)hydrazide]
